Measured values published in paper PMC5218480 (PLoS ONE, 2017).

Test system: MV-4-11 cells
Experiment: Gene expression microarray analysis (Affymetrix PrimeView) and GSEA
Format: cell-based, human
Parameters: RFU PODN (11730768_x_at) / Fold change /veh PODN (11730768_x_at) / RFU LINC00158 (11744669_a_at) / Fold change /veh LINC00158 (11744669_a_at) / RFU DUSP10 (11751237_a_at) / Fold change /veh DUSP10 (11751237_a_at) / RFU ID3 (11757404_x_at) / Fold change /veh ID3 (11757404_x_at) / RFU PLEKHG5 (11737974_s_at) / Fold change /veh PLEKHG5 (11737974_s_at) / RFU LRRC4B (11730491_at) / Fold change /veh LRRC4B (11730491_at) / RFU GIMAP4 (11747438_a_at) / Fold change /veh GIMAP4 (11747438_a_at) / RFU KRT8 (11758183_x_at) / Fold change /veh KRT8 (11758183_x_at) / RFU CNN1 (11734310_a_at) / Fold change /veh CNN1 (11734310_a_at) / RFU VPS37D (11726825_at) / Fold change /veh VPS37D (11726825_at) / RFU C10orf10 (11716522_x_at) / Fold change /veh C10orf10 (11716522_x_at) / RFU KIR2DL2 /// KIR2DL4 /// KIR2DL5A /// KIR2DL5B /// KIR2DS1 /// KIR2DS2 /// KIR2DS3 /// KIR2DS4 /// KIR3DL3 /// KIR3DL3 /// KIR3DS1 (11738374_at) / Fold change /veh KIR2DL2 /// KIR2DL4 /// KIR2DL5A /// KIR2DL5B /// KIR2DS1 /// KIR2DS2 /// KIR2DS3 /// KIR2DS4 /// KIR3DL3 /// KIR3DL3 /// KIR3DS1 (11738374_at) / RFU C1QL1 (11718748_at) / Fold change /veh C1QL1 (11718748_at) / RFU TMPRSS4 (11747572_a_at) / Fold change /veh TMPRSS4 (11747572_a_at) / RFU HAMP (11756126_x_at) / Fold change /veh HAMP (11756126_x_at) / RFU RNFT2 (11725882_a_at) / Fold change /veh RNFT2 (11725882_a_at) / RFU NR4A2 (11747474_a_at) / Fold change /veh NR4A2 (11747474_a_at) / RFU ABCC12 (11746883_a_at) / Fold change /veh ABCC12 (11746883_a_at) / RFU TMEM136 (11760407_x_at) / Fold change /veh TMEM136 (11760407_x_at) / RFU CLDN22 /// WWC2 (11732394_at) / Fold change /veh CLDN22 /// WWC2 (11732394_at) / RFU HLA-DPB1 (11760878_x_at) / Fold change /veh HLA-DPB1 (11760878_x_at) / RFU SPINT1 (11716480_a_at) / Fold change /veh SPINT1 (11716480_a_at) / RFU GAP43 (11754022_s_at) / Fold change /veh GAP43 (11754022_s_at) / RFU A4GNT (11735810_at) / Fold change /veh A4GNT (11735810_at) / RFU PRB3 (11715151_x_at) / Fold change /veh PRB3 (11715151_x_at) / RFU TUBB4B (11761932_at) / Fold change /veh TUBB4B (11761932_at) / RFU CAPN14 (11732068_a_at) / Fold change /veh CAPN14 (11732068_a_at) / RFU TMCC2 (11721928_a_at) / Fold change /veh TMCC2 (11721928_a_at) / RFU IRGQ (11745062_a_at) / Fold change /veh IRGQ (11745062_a_at) / RFU FAM174B (11720279_a_at) / Fold change /veh FAM174B (11720279_a_at) / RFU TMPRSS4 (11748680_a_at) / Fold change /veh TMPRSS4 (11748680_a_at) / RFU FAM212B (11763350_a_at) / Fold change /veh FAM212B (11763350_a_at) / RFU PLEKHG5 (11743358_a_at) / Fold change /veh PLEKHG5 (11743358_a_at) / RFU ZSCAN30 (11745921_a_at) / Fold change /veh ZSCAN30 (11745921_a_at) / RFU CMKLR1 (11741424_a_at) / Fold change /veh CMKLR1 (11741424_a_at) / RFU LOC101060620 /// MAPK8IP1 (11723275_at) / Fold change /veh LOC101060620 /// MAPK8IP1 (11723275_at) / RFU SPTSSB (11747773_x_at) / Fold change /veh SPTSSB (11747773_x_at) / RFU PRSS12 (11739890_at) / Fold change /veh PRSS12 (11739890_at) / RFU BIN1 (11741810_x_at) / Fold change /veh BIN1 (11741810_x_at) / RFU WNT11 (11732464_a_at) / Fold change /veh WNT11 (11732464_a_at) / RFU C10orf10 (11716521_a_at) / Fold change /veh C10orf10 (11716521_a_at) / RFU C5orf56 (11738089_at) / Fold change /veh C5orf56 (11738089_at) / RFU CYB561 (11721691_x_at) / Fold change /veh CYB561 (11721691_x_at) / RFU ANKRD19P (11752326_a_at) / Fold change /veh ANKRD19P (11752326_a_at) / RFU OR2T12 /// OR2T33 /// OR2T8 (11738714_s_at) / Fold change /veh OR2T12 /// OR2T33 /// OR2T8 (11738714_s_at) / RFU VCAN (11748164_a_at) / Fold change /veh VCAN (11748164_a_at) / RFU JSRP1 (11732532_at) / Fold change /veh JSRP1 (11732532_at) / RFU KRTAP10-11 (11738290_x_at) / Fold change /veh KRTAP10-11 (11738290_x_at) / RFU MYO3A (11730013_a_at) / Fold change /veh MYO3A (11730013_a_at) / RFU EBF3 (11725865_a_at) / Fold change /veh EBF3 (11725865_a_at) / RFU CAMK2N1 (11719241_x_at) / Fold change /veh CAMK2N1 (11719241_x_at) / RFU C5orf56 (11738088_a_at) / Fold change /veh C5orf56 (11738088_a_at) / RFU OLFML3 (11715873_a_at) / Fold change /veh OLFML3 (11715873_a_at) / RFU LOC100653217 /// NTM (11731650_a_at) / Fold change /veh LOC100653217 /// NTM (11731650_a_at) / RFU MAPK11 (11762145_a_at) / Fold change /veh MAPK11 (11762145_a_at) / RFU FIZ1 (11724087_x_at) / Fold change /veh FIZ1 (11724087_x_at) / RFU OASL (11726364_x_at) / Fold change /veh OASL (11726364_x_at) / RFU SOX15 (11748057_x_at) / Fold change /veh SOX15 (11748057_x_at) / RFU CD79A (11719716_a_at) / Fold change /veh CD79A (11719716_a_at) / RFU HIST1H1D (11736915_at) / Fold change /veh HIST1H1D (11736915_at) / RFU CASKIN2 (11723855_a_at) / Fold change /veh CASKIN2 (11723855_a_at) / RFU LOC730098 (11760151_x_at) / Fold change /veh LOC730098 (11760151_x_at) / RFU OR4N2 (11742367_at) / Fold change /veh OR4N2 (11742367_at) / RFU PRRT2 (11749266_a_at) / Fold change /veh PRRT2 (11749266_a_at) / RFU SNX32 (11753110_a_at) / Fold change /veh SNX32 (11753110_a_at) / RFU CDHR5 (11726645_a_at) / Fold change /veh CDHR5 (11726645_a_at) / RFU RCAN1 (11760418_a_at) / Fold change /veh RCAN1 (11760418_a_at) / RFU FAM167A (11723789_a_at) / Fold change /veh FAM167A (11723789_a_at) / RFU FAM26E (11764081_at) / Fold change /veh FAM26E (11764081_at) / RFU ISYNA1 (11749810_s_at) / Fold change /veh ISYNA1 (11749810_s_at) / RFU ACY1 (11761880_at) / Fold change /veh ACY1 (11761880_at) / RFU 11764098_at / Fold change /veh 11764098_at / RFU SAMD14 (11745864_x_at) / Fold change /veh SAMD14 (11745864_x_at) / RFU NPB (11741838_a_at) / Fold change /veh NPB (11741838_a_at) / RFU TMPRSS6 (11731388_a_at) / Fold change /veh TMPRSS6 (11731388_a_at) / RFU KRTAP10-2 (11738614_at) / Fold change /veh KRTAP10-2 (11738614_at) / RFU ARHGAP8 /// PRR5-ARHGAP8 (11727945_x_at) / Fold change /veh ARHGAP8 /// PRR5-ARHGAP8 (11727945_x_at) / RFU KRTAP5-7 /// NADSYN1 (11734609_at) / Fold change /veh KRTAP5-7 /// NADSYN1 (11734609_at) / RFU RASL12 (11751679_a_at) / Fold change /veh RASL12 (11751679_a_at) / RFU CDKN2B (11736163_a_at) / Fold change /veh CDKN2B (11736163_a_at) / RFU PRF1 (11729649_at) / Fold change /veh PRF1 (11729649_at) / RFU, ZNF638 /// ZNF638-IT1 / Fold change vs veh, ZNF638 /// ZNF638-IT1 / RFU, PANK3 / Fold change vs veh, PANK3 / RFU, SH3YL1 / Fold change vs veh, SH3YL1 / RFU, ZEB2 / Fold change vs veh, ZEB2 / RFU, NRIP1 / Fold change vs veh, NRIP1 / RFU, PTTG1IP / Fold change vs veh, PTTG1IP / RFU, CAPN2 / Fold change vs veh, CAPN2 / RFU, MED14 / Fold change vs veh, MED14 / RFU, SNORA58 / Fold change vs veh, SNORA58 / RFU, C1orf63 / Fold change vs veh, C1orf63 / RFU, LRRFIP1 / Fold change vs veh, LRRFIP1 / RFU, NDUFAF7 / Fold change vs veh, NDUFAF7 / RFU, SLC12A2 / Fold change vs veh, SLC12A2 / RFU, IBTK / Fold change vs veh, IBTK / RFU, ESF1 / Fold change vs veh, ESF1 / Fold change vs veh, TMEM50B / RFU, TAOK1 / Fold change vs veh, TAOK1 / RFU, ACBD3 / Fold change vs veh, ACBD3 / RFU, TMA16 / Fold change vs veh, TMA16 / RFU, RWDD3 / Fold change vs veh, RWDD3 / RFU, BCAT1 / Fold change vs veh, BCAT1 / RFU, EDEM3 / Fold change vs veh, EDEM3 / RFU, TMEM33 / Fold change vs veh, TMEM33 / RFU, WDR75 / Fold change vs veh, WDR75 / RFU, AHCTF1 / Fold change vs veh, AHCTF1 / RFU, TFRC / Fold change vs veh, TFRC / RFU, ZDHHC17 / Fold change vs veh, ZDHHC17 / RFU, NOM1 / Fold change vs veh, NOM1 / RFU, ARL8B / Fold change vs veh, ARL8B / RFU, ZBTB11 / Fold change vs veh, ZBTB11 / RFU, TAMM41 / Fold change vs veh, TAMM41 / RFU, KIAA1704 /// LOC100996395 / Fold change vs veh, KIAA1704 /// LOC100996395 / RFU, ING1 / Fold change vs veh, ING1 / RFU, TRMT61B / Fold change vs veh, TRMT61B / RFU, FUBP3 / Fold change vs veh, FUBP3 / RFU, TP53 / Fold change vs veh, TP53 / RFU, TNKS2 / Fold change vs veh, TNKS2 / RFU, ZFP14 / Fold change vs veh, ZFP14 / RFU, ACTR2 / Fold change vs veh, ACTR2 / RFU, PPP3R1 / Fold change vs veh, PPP3R1 / RFU, PIK3R1 / Fold change vs veh, PIK3R1 / RFU, HNRNPA1 / Fold change vs veh, HNRNPA1 / RFU, RNF170 / Fold change vs veh, RNF170 / RFU, ZNF28 / Fold change vs veh, ZNF28 / RFU, RNGTT / Fold change vs veh, RNGTT / RFU, OGT / Fold change vs veh, OGT / RFU, BRD1 / Fold change vs veh, BRD1 / RFU, MARS / Fold change vs veh, MARS / RFU, ZNF655 / Fold change vs veh, ZNF655 / RFU, FAHD1 / Fold change vs veh, FAHD1 / RFU, BDP1 / Fold change vs veh, BDP1 / RFU, LRRCC1 / Fold change vs veh, LRRCC1 / RFU, ARID1A / Fold change vs veh, ARID1A / RFU, ZNF146 / Fold change vs veh, ZNF146 / RFU, ZNF330 / Fold change vs veh, ZNF330 / RFU, GPN3 / Fold change vs veh, GPN3 / RFU, C9orf123 / Fold change vs veh, C9orf123 / RFU, N4BP2L2 / Fold change vs veh, N4BP2L2 / RFU, ARFIP1 / Fold change vs veh, ARFIP1 / RFU, FAM179B / Fold change vs veh, FAM179B / RFU, BCL10 / Fold change vs veh, BCL10 / RFU, UHRF1BP1L / Fold change vs veh, UHRF1BP1L / RFU, BET1 / Fold change vs veh, BET1 / RFU, CNOT2 / Fold change vs veh, CNOT2 / RFU, ZNF268 / Fold change vs veh, ZNF268 / Fold change vs veh, ZNF507 / RFU, DGCR2 / Fold change vs veh, DGCR2 / RFU, WDSUB1 / Fold change vs veh, WDSUB1 / Fold change vs veh, HSP90B1 /// MIR3652 / RFU, ADSS / Fold change vs veh, ADSS / RFU, GK / Fold change vs veh, GK / RFU, ZNF148 / Fold change vs veh, ZNF148 / RFU, TAF9 / Fold change vs veh, TAF9 / RFU, SLC1A5 / Fold change vs veh, SLC1A5 / RFU, SLMO2 / Fold change vs veh, SLMO2 / RFU, ABCC4 / Fold change vs veh, ABCC4 / RFU, LOC101060439 /// RAP1B / Fold change vs veh, LOC101060439 /// RAP1B / RFU, RFX7 / Fold change vs veh, RFX7 / RFU, GTPBP10 / Fold change vs veh, GTPBP10 / RFU, CNEP1R1 / Fold change vs veh, CNEP1R1 / RFU, BIVM-ERCC5 /// ERCC5 / Fold change vs veh, BIVM-ERCC5 /// ERCC5 / RFU, ILF3 / Fold change vs veh, ILF3 / RFU 11762660_at / Fold change /veh 11762660_at / RFU VCAN (11757783_s_at) / Fold change /veh VCAN (11757783_s_at) / RFU DDX43 (11728927_at) / Fold change /veh DDX43 (11728927_at) / RFU KRT8 (11758188_x_at) / Fold change /veh KRT8 (11758188_x_at) / RFU NKD1 (11759106_at) / Fold change /veh NKD1 (11759106_at) / RFU SRD5A1 (11742802_a_at) / Fold change /veh SRD5A1 (11742802_a_at) / RFU TPSAB1 /// TPSB2 (11721975_s_at) / Fold change /veh TPSAB1 /// TPSB2 (11721975_s_at) / RFU GSTM3 (11746129_a_at) / Fold change /veh GSTM3 (11746129_a_at) / RFU IL23R (11737362_x_at) / Fold change /veh IL23R (11737362_x_at) / RFU TMEM51 (11727254_a_at) / Fold change /veh TMEM51 (11727254_a_at) / RFU PIWIL2 (11732686_x_at) / Fold change /veh PIWIL2 (11732686_x_at) / RFU ORM1 (11744905_x_at) / Fold change /veh ORM1 (11744905_x_at) / RFU CCDC152 (11743942_at) / Fold change /veh CCDC152 (11743942_at) / RFU ECM1 (11717891_a_at) / Fold change /veh ECM1 (11717891_a_at) / RFU IL23R (11748794_a_at) / Fold change /veh IL23R (11748794_a_at) / RFU TNFAIP8L3 (11732012_x_at) / Fold change /veh TNFAIP8L3 (11732012_x_at) / RFU MBOAT4 (11741988_at) / Fold change /veh MBOAT4 (11741988_at) / RFU 11764193_at / Fold change /veh 11764193_at / RFU TMEM53 (11763286_at) / Fold change /veh TMEM53 (11763286_at) / RFU MAGEB2 (11727129_at) / Fold change /veh MAGEB2 (11727129_at) / RFU TMEM200A (11744735_a_at) / Fold change /veh TMEM200A (11744735_a_at) / RFU CCDC152 (11751479_a_at) / Fold change /veh CCDC152 (11751479_a_at) / RFU FAM211A (11726209_a_at) / Fold change /veh FAM211A (11726209_a_at) / RFU RGS16 (11746705_a_at) / Fold change /veh RGS16 (11746705_a_at) / RFU VCAN (11755009_s_at) / Fold change /veh VCAN (11755009_s_at) / RFU RHOB (11743442_s_at) / Fold change /veh RHOB (11743442_s_at) / RFU RGS16 (11720943_a_at) / Fold change /veh RGS16 (11720943_a_at) / RFU RGS16 (11720944_at) / Fold change /veh RGS16 (11720944_at) / RFU, VPS4B / Fold change vs veh, VPS4B / RFU, CREB1 / Fold change vs veh, CREB1 / RFU, DNAJC13 / Fold change vs veh, DNAJC13 / RFU, GNAQ / Fold change vs veh, GNAQ / RFU, CDK5R1 / Fold change vs veh, CDK5R1 / RFU, ZRANB3 / Fold change vs veh, ZRANB3 / RFU, CUL4A / Fold change vs veh, CUL4A / RFU, CCNY / Fold change vs veh, CCNY / RFU, UFL1 / Fold change vs veh, UFL1 / RFU, COG3 / Fold change vs veh, COG3 / RFU, DIAPH2 / Fold change vs veh, DIAPH2 / RFU, SKA2 / Fold change vs veh, SKA2 / RFU, AFF3 / Fold change vs veh, AFF3 / RFU, LMF1 / Fold change vs veh, LMF1 / RFU, IPO11 / Fold change vs veh, IPO11 / RFU, DFFB / Fold change vs veh, DFFB / RFU, FOXP1 / Fold change vs veh, FOXP1 / RFU, CARD8 / Fold change vs veh, CARD8 / RFU, STRN3 / Fold change vs veh, STRN3 / RFU, ADK / Fold change vs veh, ADK / RFU, RASSF2 / Fold change vs veh, RASSF2 / RFU, WIPF1 / Fold change vs veh, WIPF1 / RFU, LARP1B / Fold change vs veh, LARP1B / RFU, RASA1 / Fold change vs veh, RASA1 / RFU, RB1 / Fold change vs veh, RB1 / RFU, PPFIA1 / Fold change vs veh, PPFIA1 / RFU, MAT2A / Fold change vs veh, MAT2A / RFU, CCT5 / Fold change vs veh, CCT5 / RFU, WDR92 / Fold change vs veh, WDR92 / RFU, CUX1 / Fold change vs veh, CUX1 / RFU, TTC7A / Fold change vs veh, TTC7A / RFU, TMEM135 / Fold change vs veh, TMEM135 / RFU, DEPTOR / Fold change vs veh, DEPTOR / RFU, CPM / Fold change vs veh, CPM / RFU, DNAJB6 / Fold change vs veh, DNAJB6 / RFU, CACNA2D3 / Fold change vs veh, CACNA2D3 / RFU, DTX4 / Fold change vs veh, DTX4 / RFU, TFCP2 / Fold change vs veh, TFCP2 / RFU, GMCL1 /// GMCL1P1 / Fold change vs veh, GMCL1 /// GMCL1P1 / RFU, AEBP2 / Fold change vs veh, AEBP2 / RFU, SNHG1 /// SNORD22 /// SNORD25 /// SNORD26 /// SNORD27 /// SNORD28 /// SNORD29 /// SNORD31 / Fold change vs veh, SNHG1 /// SNORD22 /// SNORD25 /// SNORD26 /// SNORD27 /// SNORD28 /// SNORD29 /// SNORD31 / Fold change (Aza/veh), C12orf56 (ProbeSet 11735607_a_at) / Fold change (ACY-1035/veh), C12orf56 (ProbeSet 11735607_a_at) / Fold change (Aza/veh), FGFR1OP (ProbeSet 11751329_s_at) / Fold change (ACY-1035/veh), FGFR1OP (ProbeSet 11751329_s_at) / Fold change (Aza/veh), VPS36 (ProbeSet 11739960_a_at) / Fold change (ACY-1035/veh), VPS36 (ProbeSet 11739960_a_at) / RFU SYPL1 (11715823_x_at) / Fold change /veh SYPL1 (11715823_x_at) / RFU IGFBP7 (11715501_s_at) / Fold change /veh IGFBP7 (11715501_s_at) / RFU REEP3 (11722064_at) / Fold change /veh REEP3 (11722064_at) / RFU IGLL1 (11728026_x_at) / Fold change /veh IGLL1 (11728026_x_at): dose or concentration left out as unconfirmed
Conditions: MV-4-11 cells, 48 hours

Compound: Nc1ncn([C@@H]2O[C@H](CO)[C@@H](O)[C@H]2O)c(=O)n1 [azacitidine]
- Fold change /veh TMPRSS4 (11748680_a_at): 0.94
